From article PMC9916969 (International Journal of Molecular Sciences, 2023)
Read-outs that look alike come from different tables or passages of the source.

Experiments:
[1] = molecular target: T1, equine serum BChE (Equus caballus, UniProt P81908); test: biochemical; settings: mean ± SEM, n = 3, read-out: Inhibitory activity against BChE, IC50
T1 construct: human erythrocyte AChE, equine serum BChE, and porcine liver CES were used; purchased Sigma-Aldrich; host or cells: equine serum (tissue-derived)
T1 sequence (P81908 whole entry): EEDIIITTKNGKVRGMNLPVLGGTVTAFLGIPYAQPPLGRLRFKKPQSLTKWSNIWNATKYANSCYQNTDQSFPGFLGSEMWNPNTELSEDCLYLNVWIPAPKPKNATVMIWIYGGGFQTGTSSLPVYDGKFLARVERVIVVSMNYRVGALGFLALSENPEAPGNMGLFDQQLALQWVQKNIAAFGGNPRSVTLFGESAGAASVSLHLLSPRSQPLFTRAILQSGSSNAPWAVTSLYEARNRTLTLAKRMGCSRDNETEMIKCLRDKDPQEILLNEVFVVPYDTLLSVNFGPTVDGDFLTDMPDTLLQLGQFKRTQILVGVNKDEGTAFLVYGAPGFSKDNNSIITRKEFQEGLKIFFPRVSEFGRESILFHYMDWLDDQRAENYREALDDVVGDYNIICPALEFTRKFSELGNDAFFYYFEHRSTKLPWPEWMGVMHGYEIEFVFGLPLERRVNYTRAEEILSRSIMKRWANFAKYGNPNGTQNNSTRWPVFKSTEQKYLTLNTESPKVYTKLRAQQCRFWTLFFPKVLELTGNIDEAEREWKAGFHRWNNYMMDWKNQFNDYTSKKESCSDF
Text: (§1) Assessment of the esterase profile of new potential anti-AD molecules enables the estimation of both the primary pharmacological effects of the tested compounds—their inhibition of AChE and BChE—and their possible unwanted side effect—inhibition of CES, which hydrolyzes numerous ester-containing drugs. For the esterase profile evaluation, human erythrocyte AChE, equine serum BChE, and porcine liver CES were used. These sources of BChE and CES were employed because of their relatively low cost, high sequence identity to human enzymes, and the exploratory character of this work.
(§2) Chromophore absorbances were measured with a FLUOStar Optima microplate reader (BMG Labtech, Ortenberg, Germany). […] Initially, we used a single concentration of 20 µM for all compounds.

[2] = molecular target: T2, human erythrocyte AChE (Homo sapiens, UniProt P22303); test: biochemical; settings: mean ± SEM, n = 3, read-out: Inhibitory activity against AChE, IC50
T2 construct: human erythrocyte AChE, equine serum BChE, and porcine liver CES were used; purchased Sigma-Aldrich; host or cells: human erythrocytes (tissue-derived)
T2 sequence (P22303 32-617 isoform P22303-2 limits assumed): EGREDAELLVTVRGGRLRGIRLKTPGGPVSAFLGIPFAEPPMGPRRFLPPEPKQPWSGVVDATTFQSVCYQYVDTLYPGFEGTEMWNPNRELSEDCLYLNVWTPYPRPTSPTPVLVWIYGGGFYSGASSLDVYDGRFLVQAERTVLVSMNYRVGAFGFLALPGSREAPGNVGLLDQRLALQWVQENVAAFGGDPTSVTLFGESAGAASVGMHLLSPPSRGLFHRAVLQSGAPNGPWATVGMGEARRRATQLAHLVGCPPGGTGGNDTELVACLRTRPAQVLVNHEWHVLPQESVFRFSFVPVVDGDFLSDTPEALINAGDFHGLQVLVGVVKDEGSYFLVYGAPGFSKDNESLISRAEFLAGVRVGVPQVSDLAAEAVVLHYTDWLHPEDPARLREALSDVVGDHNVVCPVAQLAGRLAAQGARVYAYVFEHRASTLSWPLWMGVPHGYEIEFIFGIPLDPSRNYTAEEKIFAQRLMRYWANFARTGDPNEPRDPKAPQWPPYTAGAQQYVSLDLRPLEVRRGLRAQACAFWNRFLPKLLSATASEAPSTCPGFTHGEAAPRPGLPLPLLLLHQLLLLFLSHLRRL
Text: as §1, §2

[3] = FRAP assay; settings: Trolox equivalents; 60 min, 37 °C; n.a. = not active
Method: The Ferric Reducing Antioxidant Power (FRAP) test involves reduction of the ferric 2,4,6-tripyridyl-s-triazine complex [Fe(TPTZ)2]^3+ to an intense-blue ferrous complex [Fe(TPTZ)2]^2+ [92], as previously reported. Results are given as Trolox Equivalents (TE).
The FRAP (ferric reducing antioxidant power) assay proposed by Benzie and Strain [92] was modified to be performed in 96-well microplates as described in detail in [53]. The FRAP reagent contained 2.5 mL of 10 mM TPTZ (2,4,6-tris(2-pyridyl)-s-triazine, Sigma-Aldrich) solution in 40 mM HCl, 2.5 mL of 20 mM FeCl3 (Sigma-Aldrich) in distilled water and 25 mL of 0.3 M acetate buffer (pH 3.6). Aliquots of 10 µL of the test compound dissolved in DMSO (0.5 mM) were placed in quadruplicate. Absorbance was measured at a wavelength of 593 nm after 60 min incubation at 37 °C. In each case, Trolox was used as a reference compound to obtain the standard curve. The AO activity was calculated with respect to the activity of Trolox and expressed as Trolox equivalents (TE)—the values calculated as the ratio of the concentrations of Trolox and the test compound resulting in the same effect on ferric reducing activity.

[4] = system: porcine liver CES; test: In vitro CES inhibition (4-NPA substrate); format: biochemical; settings: compound 20 µM, n.a. = not active
Text: as §1, §2

[5] = Metal chelation by UV-Vis spectroscopy, Cu2+; settings: ethanol, 25 °C; compound and metal 40 μM; difference spectra; two bands per compound
[6] = molecular target: β-amyloid (1–42) (Aβ42) (Homo sapiens, UniProt P05067); test: Inhibition of Aβ42 self-aggregation (thioflavin T); format: biochemical; settings: read-out: Inhibition of Aβ42 Self-Aggregation
β-amyloid (1–42) (Aβ42), sequence (P05067 672-713 limits assumed): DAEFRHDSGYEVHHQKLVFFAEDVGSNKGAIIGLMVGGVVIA
Method: The inhibitory activity of tested hybrids against the self-aggregation of Aβ42 was determined in vitro using the thioflavin T (ThT) fluorimetric assay. According to [84], the ThT test is ideal for preliminary screening of inhibitors of Aβ42 self-aggregation, as it enables the quantitative testing of large numbers of compounds within a relatively short time.
The influence of the inhibitory effect of the test compounds toward Aβ42 self-aggregation was determined using the thioflavin T (ThT) fluorescence method with minor modifications. This assay is based on a specific interaction between the fluorescent dye thioflavin T that binds to the β-sheets of assembled amyloid fibrils leading to a significant increase in fluorescence signal. Therefore, the decrease in ThT fluorescence correlates with the ability of the studied compounds to inhibit the formation of amyloid aggregates.
One mg of lyophilized HFIP-pretreated Aβ42 from BACHEM (Bubendorf, Switzerland) was dissolved in DMSO to obtain a stable initial solution ([Aβ42] = 500 μM); then it was aliquoted and stored at −20 °C.
For the measurement of Aβ42 self-aggregation and amyloid fibril inhibition studies by the tested compounds, aliquots of 500 μM Aβ42 stock solution were diluted in 215 mM Na-phosphate buffer pH = 8.0 to a final concentration of 50 μM Aβ42. Then the samples were incubated for 24 h at 37 °C without stirring in the absence (base level of Aβ42 self-aggregation, control) or presence of the test compounds. Myricetin and propidium iodide were used as reference compounds (positive controls). All compounds were used in a concentration of 100 µM. To quantify Aβ42 fibril formation, after incubation, 5 μM ThT in 50 mM glycine-NaOH buffer pH 8.5 was added to the solutions to a final concentration of 4 μM ThT and the fluorescence was measured at 440 nm (excitation) and 485 nm (emission). Analyses were performed with a FLUOStar Optima microplate reader (LabTech, Ortenberg, Germany). The blanks consisted of 215 mM Na-phosphate buffer, pH = 8.0, 20% (v/v) DMSO or test compounds, respectively. Each assay was run in triplicate.

[7] = molecular target: T3, EeAChE PAS (Electrophorus electricus, UniProt O42275); format: binding; settings: compound 20 µM; EeAChE 7 µM; propidium iodide 8 µM
T3 construct: The enzyme was electric eel AChE (EeAChE type VI-S, lyophilized powder, Sigma-Aldrich); purchased Sigma-Aldrich type VI-S; host or cells: electric eel (tissue-derived)
T3 sequence (O42275 24-633): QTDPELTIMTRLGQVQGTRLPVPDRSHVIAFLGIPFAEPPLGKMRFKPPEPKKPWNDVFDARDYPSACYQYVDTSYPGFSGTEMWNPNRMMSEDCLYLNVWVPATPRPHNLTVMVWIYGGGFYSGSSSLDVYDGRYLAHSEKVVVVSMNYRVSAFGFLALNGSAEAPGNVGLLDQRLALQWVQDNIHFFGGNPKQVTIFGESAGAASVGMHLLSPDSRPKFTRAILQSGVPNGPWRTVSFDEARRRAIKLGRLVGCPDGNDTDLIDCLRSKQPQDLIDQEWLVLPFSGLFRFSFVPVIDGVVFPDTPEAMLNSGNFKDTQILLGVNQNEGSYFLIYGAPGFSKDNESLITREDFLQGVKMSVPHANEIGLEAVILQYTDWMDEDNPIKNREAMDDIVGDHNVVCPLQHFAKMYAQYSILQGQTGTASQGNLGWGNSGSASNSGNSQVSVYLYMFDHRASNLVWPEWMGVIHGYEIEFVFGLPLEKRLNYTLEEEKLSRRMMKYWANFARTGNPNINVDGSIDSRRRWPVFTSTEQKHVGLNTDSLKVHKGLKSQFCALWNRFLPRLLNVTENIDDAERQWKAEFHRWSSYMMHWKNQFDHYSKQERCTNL
Text: This method is widely used as a screening approach to assess the potential ability of compounds to block AChE-induced β-amyloid aggregation. This is because when the compounds bind to the AChE PAS, they prevent the binding of β-amyloid, thereby inhibiting its aggregation.
The enzyme was electric eel AChE (EeAChE type VI-S, lyophilized powder, Sigma-Aldrich). We selected this source of AChE for consistency with our other reports and because of the purity, specific activity, and lower cost compared to human AChE.
Propidium iodide (final concentration 8 μM) was then added for a further 15 min incubation, and the fluorescence spectrum was taken (530 nm excitation and 600 nm emission) using a FLUOStar Optima microplate reader. The same concentration of propidium iodide in the Tris buffer was used as the blank. Triplicate determinations were recorded and the results were calculated via the following equation:% Displacement = 100 − (IFAChE+ Propidium + inhibitor/IFAChE + Propidium) × 100, where IFAChE + Propidium = fluorescence intensity of propidium iodide associated with AChE in the absence of the test compound (taken as 100%), and IFAChE + Propidium + inhibitor = fluorescence intensity of propidium iodide associated with AChE in the presence of the test compound.

[8] = ABTS radical cation scavenging assay; parameters: key to ABTS^•+ Scavenging Activity, TEAC: TEAC: ratio of compound slope to Trolox slope (Trolox equivalents); settings: 1 h incubation
Method: In the ABTS assay, the dark-green ABTS cation-radical (ABTS^•+) is quenched by interaction with AOs. The consequent decrease in absorbance is followed spectrophotometrically per the previously described method.
Radical scavenging activity of the compounds was assessed using the ABTS radical cation (ABTS^•+) decolorization assay with some modifications. ABTS (2,2′-azinobis-(3-ethylbenzothiazoline-6-sulfonic acid) was purchased from Tokyo Chemical Industry Co., Ltd. (Tokyo, Japan); potassium persulfate (dipotassium peroxodisulfate), Trolox (6-hydroxy-2,5,7,8-tetramethylchroman-2-carboxylic acid), and HPLC-grade ethanol and DMSO were obtained from Sigma-Aldrich (Saint Louis, MO, USA). Aqueous solutions were prepared using deionized water. All tested compounds were dissolved in DMSO.
The solution of cation radical ABTS^•+ was produced by incubation of an aqueous solution of 7 mM ABTS and 2.45 mM potassium persulfate solution in equal quantities for 12–16 h at room temperature in the dark. Radical scavenging capacity of the compounds was analyzed by mixing 10 μL of compound with 240 μL of ABTS^•+ working solution in ethanol (100 μM final concentration). The reaction was monitored for an hour at 30 °C with an interval of 10 min. Data are given for 1 h of incubation of compounds with ABTS^•+. The reduction in absorbance was measured spectrophotometrically at 734 nm using an xMark microplate UV/VIS spectrophotometer (Bio-Rad, Hercules, CA, USA). Ethanol blanks were run in each assay. Values were obtained from five replicates of each sample and three independent experiments.
The standard AO Trolox was used as a reference compound. AO capacity as Trolox equivalent (TEAC) values was determined as the ratio between the slopes obtained from the linear correlation of the ABTS radical absorbance with the concentrations of tested compounds and Trolox. Ascorbic acid was used as a positive control. […]. The compounds were tested in the concentration range of 0.5–100 µM.

[9] = molecular target: T4, AChE (Homo sapiens, UniProt P22303); test: Kinetic study of AChE inhibition (Lineweaver-Burk); format: biochemical; settings: for αKi (non-competitive inhibition constant), AChE: mixed-type inhibition, mean ± SEM; for Ki: read-out: Ki (competitive inhibition constant), AChE
T4 construct: human erythrocyte AChE, equine serum BChE, and porcine liver CES were used; purchased Sigma-Aldrich; host or cells: human erythrocytes (tissue-derived)
T4 sequence (P22303 32-617 isoform P22303-2 limits assumed): as the sequence (P22303 32-617 isoform P22303-2 limits assumed) above
Method: (§3) We assessed the mechanisms of AChE and BChE inhibition by performing a thorough analysis of enzyme kinetics. After a 5 min incubation at 25 °C (for temperature equilibration) with three increasing concentrations of inhibitor and six decreasing substrate concentrations, the residual enzyme activity was measured as described above for enzymatic assays.

[10] = molecular target: T5, eqBChE (Equus caballus, UniProt P81908); test: Kinetic study of BChE inhibition (Lineweaver-Burk); format: biochemical; settings: for αKi (non-competitive inhibition constant), eqBChE: mixed-type inhibition, mean ± SEM; for Ki: read-out: Ki (competitive inhibition constant), eqBChE
T5 construct: human erythrocyte AChE, equine serum BChE, and porcine liver CES were used; purchased Sigma-Aldrich; host or cells: equine serum (tissue-derived)
T5 sequence (P81908 whole entry): as the sequence (P81908 whole entry) above
Method: Similar results were obtained for other tested compounds (Figures S61 and S62). The obtained values of inhibition constants (Ki = competitive component and αKi = non-competitive component) are shown in Table 2.
as §3

[11] = in vitro; format: cell-based; settings: mouse
Method: […]. Accordingly, in the present work, we paid special attention to the study of the cytotoxic activity of compounds on primary cultures of mouse hepatocytes using standard MTT methodology.
The cytotoxicity of the compounds was evaluated using a primary culture of mouse hepatocytes isolated at the Center for Biotechnology and Bioengineering, Ural Federal University, Ekaterinburg, Russia, according to the standard method. Cells were seeded in 96-well plates in the inoculum dose of 1 × 10^4 cells/mL and cultured for 24 h in Dulbecco’s Modified Eagle Medium (DMEM), with 1% (w/v) glutamine in the presence of 10% (v/v) fetal bovine serum and gentamicin (50 mg/L) at 37 °C, with a humidified atmosphere of 5% (v/v) CO2. Cell viability was assessed using the standard MTT assay. The compounds were dissolved in DMSO and then in a nutrient medium, after which they were added to the wells with cells at final concentrations of 10^−7, 10^−6, 10^−5, and 10^−4 M. Hepatocytes were exposed to test compounds for 24 h at 37 °C, 95% relative humidity and 5% (v/v) CO2 atmosphere. After incubation, the medium was replaced with 100 μL of fresh medium containing MTT (0.5 mg/mL). The plates were then incubated at 37°C in a CO2 incubator for 2 h. Then the medium with MTT was removed and DMSO was added to dissolve the formazan crystals.
The results of the MTT assay were evaluated on a Tecan Infinite M200 PRO (Tecan Austria GmbH, Grödig, Austria) plate spectrophotometer at 570 nm by comparing the optical density of a formazan solution in the assay and control wells. The cell viability was expressed as the percentage of untreated control. The results were obtained from three independent experiments performed in six replicates. The IC50 (μM) values were calculated by the AAT Bioquest-calculator: (https://www.aatbio.com/tools/ic50-calculator, accessed on 1 December 2022) and expressed as a mean ± standard error of the mean (SEM). Statistical analysis was carried out using Microsoft Excel 2007 (Microsoft Corporation, Redmond, WA, USA) and Statistica 2009 (Tulsa, OK, USA) programs.

[12] = Aβ42 50 µM, compound 100 µM, 24 h, 37 °C, thioflavin T

Compound | IC50 [1] [nM] | IC50 [2] [nM] | FRAP, TE [3] | Inhibitory activity against CES, inhibition at 20 µM [4] [%] | Shift of Absorbance, Cu(II) [5] [nm] | inhibition at 100 µM [6, 12] [%] | Propidium Displacement from EeAChE PAS [7] [%] | IC50 ([8]; 50% reduction of ABTS radical cation) [nM] | ABTS^•+ Scavenging Activity, TEAC ([8]; Trolox equivalent, n.a. = not active) | αKi (non-competitive inhibition constant), AChE [9] [µM] | Ki [9] [nM] | αKi (non-competitive inhibition constant), eqBChE [10] [µM] | Ki [10] [nM] | IC50 at 24 h [11] [nM] | inhibition at 100 µM [6] [%]
Oc1ccccc1/C=N/CCCCCCNc1c2c(nc3ccccc13)CCCC2 [10b] | 35.4 ± 1.7 | 103 ± 6 | 0.03 | 17.9 ± 0.8 | 255 | 67.9 ± 5.4 | 18.2 ± 1.4 | 31800 ± 1600 | 0.47 ± 0.04 | – | – | – | – | – | –
COc1ccccc1C(=O)NCCCCCCNc1c2c(nc3ccccc13)CCCC2 [6b] | 37.7 ± 3.1 | 646 ± 41 | 0.02 | 8.0 ± 1.3 | 254 | 30.8 ± 2.1 | 12.5 ± 0.8 | – | – | – | – | – | – | – | –
COc1cc(F)c(F)cc1C(=O)NCCCCCCCCNc1c2c(nc3ccccc13)CCCC2 [8c] | 31.7 ± 2.4 | 142 ± 11 | 0.02 | 19.8 ± 3.1 | – | 54.1 ± 4.3 | 15.1 ± 1.2 | – | – | 0.0998 ± 0.0058 | 53.6 ± 2.5 | 0.0187 ± 0.0013 | 17.7 ± 0.7 | – | –
COc1ccccc1C(=O)NCCCCCCCCNc1c2c(nc3ccccc13)CCCC2 [6c] | 47.5 ± 3.2 | 150 ± 11 | – | 10.6 ± 1.2 | – | 55.6 ± 4.4 | 14.1 ± 0.9 | – | – | 0.213 ± 0.012 | 104 ± 4 | 0.0314 ± 0.0025 | 18.8 ± 1.1 | 3810 ± 70 | –
COc1cc(F)c(F)cc1C(=O)NCCCCCCNc1c2c(nc3ccccc13)CCCC2 [8b] | 70.2 ± 4.2 | 712 ± 67 | 0.02 | 6.3 ± 0.9 | – | 29.7 ± 2.3 | 13.8 ± 0.9 | – | – | – | – | – | – | 3950 ± 220 | –
Nc1c2c(nc3ccccc13)CCCC2 [Tacrine, reference compound] | – | – | – | – | – | – | – | – | – | – | – | – | – | 3780 ± 150 | 5.9 ± 0.5
